These results are taken from ChEMBL document CHEMBL1156589, “2-Arylpyrimidines: novel CRF-1 receptor antagonists” (Bioorg Med Chem Lett, 2008).

≈ marks a conversion by molar mass, not a printed value.

Data set [1] in a line: Clearance in Sprague-Dawley rat at 20 mg/kg, po and 3 mg/kg, iv. It counts as ADME, organism-based. The conditions noted are these: in vivo.
Data set [2] can be described thus: Half life in Sprague-Dawley rat at 20 mg/kg, po and 3 mg/kg, iv. The conditions noted are these: in vivo. The class given is ADME, organism-based.
In data set [3] the target is T1, Corticotropin-releasing factor receptor 1 (Homo sapiens, UniProt P34998).
T1 sequence (P34998 whole entry): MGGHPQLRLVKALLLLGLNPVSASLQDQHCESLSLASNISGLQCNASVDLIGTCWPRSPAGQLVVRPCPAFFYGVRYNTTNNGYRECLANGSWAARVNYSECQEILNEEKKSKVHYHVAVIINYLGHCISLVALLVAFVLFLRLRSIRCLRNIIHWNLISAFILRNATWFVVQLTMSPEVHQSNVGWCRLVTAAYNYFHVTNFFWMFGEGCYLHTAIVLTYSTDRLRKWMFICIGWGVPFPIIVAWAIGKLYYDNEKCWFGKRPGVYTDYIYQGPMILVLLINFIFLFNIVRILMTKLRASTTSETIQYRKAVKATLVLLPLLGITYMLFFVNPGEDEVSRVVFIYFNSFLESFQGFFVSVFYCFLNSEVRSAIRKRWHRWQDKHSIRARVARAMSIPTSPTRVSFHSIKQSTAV
Briefly: Antagonist activity at CRF1 receptor expressed in mouse AtT20 cells assessed as inhibition of sauvagine-stimulated cAMP accumulation. It counts as functional, cell-based. (cAMP levels reflect the balance of adenylyl cyclase and phosphodiesterase activity.)

Data set [4] is described as follows: Volume of distribution in Sprague-Dawley rat at 20 mg/kg, po and 3 mg/kg, iv. Particulars: in vivo. It counts as ADME, organism-based.
Data set [5] in a line: Oral bioavailability in Sprague-Dawley rat at 20 mg/kg. The class given is ADME, organism-based. Particulars: in vivo.
Data set [6] in a line: Tmax in Sprague-Dawley rat at 20 mg/kg, po and 3 mg/kg, iv. The class given is ADME, organism-based. Particulars: in vivo.
Data set [7] is described as follows: Cmax in Sprague-Dawley rat at 20 mg/kg, po and 3 mg/kg, iv. It counts as ADME, organism-based. The conditions noted are these: in vivo.
Data set [8] can be described thus: Solubility in 0.1 N hydrochloric acid. It counts as physicochemical.
The target in data set [9] is T1, Corticotropin-releasing factor receptor 1. Briefly: biochemical. It counts as cell-based, IMR-32.
Description: Displacement of [125I]sauvagine from human CRF1 receptor expressed in IMR32 cells

As usually defined, the half-life is how long it takes for the measured level to halve. Higher therefore signals slow loss. As a reminder, the IC50 is the concentration that inhibits the measured activity by half. The bioavailability is dose-corrected exposure relative to a reference, in per cent. Lower therefore signals little systemic uptake. Broadly, the Tmax is the time at which the peak concentration occurs. What is called Cmax is the peak of the concentration-time curve. One may read the solubility as how much of the substance goes into solution per volume. As to `CCCN(CCC)c1c(C)nc(-c2c(C)cc(C)cc2OC)c2ccccc12`, in data set [1], the clearance turned out to be 14.5 mL/min/kg. Besides, the half-life in [2] is 5.4 h. In addition, the IC50 in data set [3] was 12 nM. This compound yielded a Vd in [4] of 13 L/kg. The compound further displayed a bioavailability in data set [5] of 5%. In data set [6], the Tmax came to 0.7 h. In [7], this compound displayed a Cmax of 387 ng/mL. The compound further yielded a solubility in [8] of less than 0.5 µg/mL.
The term Ki denotes a measure of affinity in units of concentration, obtained from inhibition or displacement. High values mean lower affinity, low ones higher affinity. In the case of `CCC(CC)Nc1c(C)nc(-c2c(C)cc(C)cc2OC)nc1OC`, in [9], the Ki amounted to 94 nM.
As for `CCCN(CCC)c1c(CC(C)O)nc(-c2c(C)cc(C)cc2OC)nc1OC` (stereo not given), the affinity in data set [9] corresponds to a Ki of 1150 nM.
`CCCN(CCC)c1c(C)nc(-c2ccc(Cl)cc2Cl)nc1OC`: in [9], the Ki was more than 10000 nM.
In [9], `CCCN(CCC)c1c(C)nc(-c2c(C)cc(C)cc2OC)nc1OC(C)C` came in with a Ki of more than 5000 nM.
Turning to `CCCN(CCC)c1c(C)nc(-c2c(C)cc(C)cc2OC)nc1OCCO`, the affinity in data set [9], expressed as Ki, was 1610 nM.
The compound `CCCc1nc(-c2c(C)cc(C)cc2OC)nc(OC)c1N(CCC)CCC` came in with a Ki in data set [9] of 76 nM.
In the case of `CCCN(CCC)c1c(C)nc(-c2c(C)cc(C)cc2OC)nc1OC`, the inhibitory constant (Ki) in [9] was determined as 15 nM.
`CCCNc1c(C)nc(-c2c(C)cc(C)cc2OC)nc1OC` came in with a Ki in data set [9] of more than 10000 nM.
In turn, `COc1cc(C)cc(C)c1-c1nc(C)c(NCC(C)(C)C)c(OC)n1` had a Ki in data set [9] of more than 10000 nM.
In [9], `CCCN(CCC)c1c(C)nc(-c2c(OC)cc(C(F)(F)F)cc2C(F)(F)F)nc1OC` yielded a Ki of 6 nM.
Regarding `CCC(CC)Oc1c(C)nc(-c2c(C)cc(C)cc2OC)nc1OC`, the IC50 in data set [3] was found to be 19 nM. Besides, the Ki in data set [9] is 8 nM.
With `CCC(CC)Oc1c(C)nc(-c2c(OC)cc(Cl)cc2OC)nc1OC`, the clearance in [1] was 13.6 mL/min/kg. In addition, in data set [2], the half-life was 8.3 h. The IC50 in data set [3] is 7 nM. The same compound displayed a Vd in data set [4] of 14 L/kg. In data set [5], this compound had a bioavailability of 6%. Also, the Tmax in data set [6] is 1.8 h. Moreover, in [9], the Ki was 9 nM. For the same compound, in data set [7], the concentration peaked (Cmax) at 194 ng/mL. Further, in data set [8], the solubility was 28 µg/mL (≈ 73.5 µM).
The compound `CCC(CC)c1cc(C)nn2c(-c3sc(N4CCOCC4)nc3Cl)c(C)nc12` showed a Ki in [9] of 0.2 nM.
Compound `CCCN(CCC)c1c(C)nc(-c2c(C)cc(C)cc2OC)nc1OCC` yielded a Ki in data set [9] of 16 nM.
In data set [9], `CCCN(CCC)c1c(C)nc(-c2c(C)cc(C)cc2OC)nc1Cl` had a Ki of 33 nM.
Regarding `CCCN(CCC)c1cnc(-c2c(C)cc(C)cc2OC)nc1C`, the affinity in [9] corresponds to a Ki of 561 nM.
In the case of `CCC(CC)Oc1c(C)nc(-c2c(OC)cc(C(F)F)cc2OC)nc1OC`, in [9], the affinity corresponds to a Ki of 9 nM.
Take `CCCN(CCC)c1c(C)nc(-c2c(OC)cccc2OC)nc1OC`: the Ki in [9] worked out at 277 nM.
`CCCN(CCC)c1c(CC(C)(C)O)nc(-c2c(C)cc(C)cc2OC)nc1OC`: the Ki in [9] amounted to 604 nM.
Consider `CCCN(CCC)c1c(CC)nc(-c2c(C)cc(C)cc2OC)nc1OC`, for which the Ki in data set [9] was 22 nM.
In data set [1], `CCCN(CCC)c1c(C)nc(-c2c(OC)cc(Cl)cc2OC)nc1OC` displayed a clearance of 21 mL/min/kg. The half-life in data set [2] is 2.8 h. Also, in data set [3], the IC50 was determined as 1 nM. This compound registered a Vd in data set [4] of 12 L/kg. Moreover, in data set [5], the bioavailability amounted to 2%. Also, the Tmax in [6] was 0.6 h. Also, the Ki in [9] amounted to 2 nM. This compound displayed a Cmax in data set [7] of 210 ng/mL. Further, in [8], the solubility was 27 µg/mL (≈ 68.5 µM).
On to `CCCN(CCC)c1c(C)nc(-c2ccc(OC)cc2OC)nc1OC`, for which the Ki in data set [9] is 507 nM.
In [9], `CCCN(CCC)c1c(C)nc(-c2c(C)cc(C)cc2C)nc1OC` yielded a Ki of 354 nM.
Regarding `CCCOc1nc(-c2c(C)cc(C)cc2OC)nc(C)c1N(CCC)CCC`, the affinity in data set [9] corresponds to a Ki of 53 nM.
Same read-out and setting: as for `CCCCN(CC)c1nc(C)nc2c1c(C)cn2-c1c(C)cc(C)cc1C` [CP-154526], the figure is 3 nM.
